The values below come from patent publication US20250205226A1, “USE OF N-(3-(4-(3-(DIISOBUTYLAMINO)PROPYL)PIPERAZIN-1-YL)PROPYL)-1H-BENZO[D]IMIDAZOL-2-AMINE SALTS AND SOLVATES THEREOF FOR THE TREATMENT OF SENSORY NEURON DISEASES” (ALZPROTECT, priority 2022, published 2025).

Like-named read-outs stand apart in the source and are kept apart here.

For the assay, the system named is primary culture of rat sensory neurons and Schwann cells. In kind it is cell-based. The settings on record: for Effect on SN neurite network after cisplatin injury / Effect on SN survival as compared to the cisplatin condition: 3 nM to 100 nM, with cisplatin 10 μg/mL injury; for Survival of SNs (number of MAP-2 positive SNs), mean survival / Total neurite network (MAP-2), mean length: percentage of control, 24 h. The protocol: Primary sensory neurons (SN) and Schwann cells (SC) were cultured as previously described in Cancer Chem. Pharmacol. 2008 November;62 (6): 995-1007. Briefly, pregnant female rats of 15 days gestation (Rats Wistar; Janvier Labs France) were killed using a deep anesthesia with CO2 chamber and a cervical dislocation. Then, fetuses were collected and immediately placed in ice-cold L15 Leibovitz medium with a 2% penicillin (10,000 U/mL) and streptomycin (10 mg/mL) solution (PS) and 1% bovine serum albumin (BSA). DRG from spinal cord were treated for 20min at 37° C. with a trypsin-EDTA solution at a final concentration of 0.05% trypsin and 0.02% EDTA. The dissociation was stopped by addition of Dulbecco's modified Eagle's medium (DMEM) with 4.5 g/L of glucose, containing DNAse I grade II (final concentration 0.5 mg/mL) and 10% fetal calf serum (FCS). Cells were mechanically dissociated through the tip of a 10 mL pipette. Cells were then centrifuged at 515× g for 10 min at 4° C. DMEM F12 with a 1% solution of N2 supplement, 2 mmol/L of L-glutamine, 2% of PS solution, NGF (5 ng/ml) and NT3 (5 ng/ml). Cells were seeded at a density of 15,000 per well in 96-well plates pre-coated with poly-L-lysine and cultured at 37° C. in an air (95%)-CO2 (5%) incubator. […] Cells were washed twice in PBS. Cell membranes were permeabilized and non-specific sites were blocked with a solution of PBS containing 0.1% of saponin and 1% FCS for 15 min at room temperature. Then, cells were incubated for 2 h with a mouse monoclonal antibody anti-microtubule associated protein 2 (MAP-2) at dilution of 1/400 in PBS containing 1% fetal calf serum and 0.1% of saponin. This antibody binds specifically MAP-2 present in cell bodies and neurites of all SNs. […] Nuclei of neurons were labeled by a fluorescent marker (Hoechst solution). For each condition, 30 pictures (representative of 90% of the well area) per well were automatically taken using ImageXpress (Molecular Devices) with 20× magnification. All images were taken under the same conditions (exposition time, gain and laser intensity). Analysis of different endpoints was automatically performed using Custom Module Editor (Molecular Devices). The endpoints were: • Survival of SNs (number of MAP-2 positive SNs) • Total neurite network (MAP-2): total length of neurites of SNs (expressed in μm) All values are expressed as mean +/−SEM. Statistical analysis was performed by one-way ANOVA, followed by PLSD Fisher test.

Take `CC(C)CN(CCCN1CCN(CCCNc2nc3ccccc3[nH]2)CC1)CC(C)C.O=S(=O)(O)O.O=S(=O)(O)O` [N-(3-(4-(3-(diisobutylamino)propyl)piperazin-1-yl)propyl)-1H-benzo[d]imidazol-2-amine di-sulphate]: the “Effect on SN neurite network after cisplatin injury” value is “able to improve the neurite network after cisplatin injury”; the “Effect on SN survival as compared to the cisplatin condition” value is “positive and significant effect on survival”. Also, the “Survival of SNs (number of MAP-2 positive SNs), mean survival” value (30 nM (maximal effect) with cisplatin 10 μg/mL injury, FIG. 7A) came out at 80%. The “Total neurite network (MAP-2), mean length” value (30 nM (maximal effect) with cisplatin 10 μg/mL injury, FIG. 7B) was found to be 83%.

As for “N-(3-(4-(3-(diisobutylamino)propyl)piperazin-1-yl)propyl)-^1H-benzo[d]imidazol-2-amine sesqui-succinate salt [sesqui-succinate salt Form 1]”, the “Effect on SN neurite network after cisplatin injury” value is on record as “able to protect the neurite network from cisplatin damage”; the “Effect on SN survival as compared to the cisplatin condition” value was “positive and significant effect on survival”. In addition, where the note is “10 nM (maximal effect) with cisplatin 10 μg/mL injury, FIG. 8A”, the “Survival of SNs (number of MAP-2 positive SNs), mean survival” value is reported as roughly 77%. The “Total neurite network (MAP-2), mean length” value (10 nM (maximal effect) with cisplatin 10 μg/mL injury, FIG. 8B) is on record as roughly 80%.
